# Counter-ions that a name gives are not always drawn.
# Assay: drug loading and release from MeHA MN patches in PBS
# Assay type: physicochemical
# Experimental: The drug loading capabilities of MeHA MNs was investigated by using model drugs of different molecular weights, mainly fluorescein isothiocyanate (FITC), FITC-Dextran and doxorubicin hydrochloride (Dox). The innate ability of the MeHA MN arrays to absorb fluid is taken advantage of to load the drug molecules into the MN tips. All three drugs are dissolved in PBS which were then used to equilibrate MeHA MN patches. After 10 minutes of incubation with the drug solution, the MNs were left to dry in the fumehood (FIG. 14). The amount of drug encapsulated in the MN was determined by immersing the drug loaded MeHA in 1×PBS. By obtaining a 50 μL of the solution at various time points, the fluorescence intensity was measured to determine the drug release profile of the three different drug molecules.
# Next, the release profiles of drugs from the MeHA MN patches were examined.
Compound,"released from the MN patches (MeHA MN patches, 1×PBS, within 30 minutes) [%]","loading into the MN tips through swelling (MeHA MN, 10 minutes incubation with drug solution in PBS)"
"COc1cccc2c1C(=O)c1c(O)c3c(c(O)c1C2=O)C[C@@](O)(C(=O)CO)C[C@@H]3O[C@H]1C[C@H](N)[C@H](O)[C@H](C)O1 [Dox, doxorubicin hydrochloride]",50,
fluorescein isothiocyanate [FITC],,easily loaded
